Measurements: publication PMC7054748, “The identification and characterisation of autophagy inhibitors from the published kinase inhibitor sets” (Biochemical Journal, 2020)
“And” between values parts separate entries of the source, which are not always exact repeats. Equal entries are not always repeated. Where two headings read alike, the source gives them in different places.

Key:
VPS34 = VPS34 (Homo sapiens, UniProt Q8NEB9); assay: VPS34 ADP Hunter Plus kinase activity assay; details: for Mechanism of inhibition of VPS34 with respect to ATP: varying ATP below 200 µM, Michaelis–Menten and Lineweaver–Burk plots; for Mechanism of inhibition of VPS34 with respect to PI:PS: varying PI:PS below 12 µM
AMPK (ULK1 pS556) = assay: Upstream AMPK activity: ULK1 pS556 western blot in U2OS cells; type: cell-based, human; details: for Effect on AMPK activity (pS556 ULK1): 100 nM (VPS34-IN1 500 nM), 60 min pre-treatment, ± EBSS 60 min
Experimental: (§1) U2OS (human osteosarcoma-derived) cells were cultured in DMEM supplemented with 10% foetal bovine serum, 100 U/ml Penicillin and […] L-glutamine. Cells were pre-treated with compounds at the indicated concentrations for 60 min followed by treatments with EBSS or EBSS combined with/without 50 nM Bafilomycin A1 (Enzo Life Sciences) for a further 60 or 120 min with/without inhibitors, as indicated in figures/figure legends.
(§2) Lysates were then spun at 20 000×g for 10 min and the supernatant was collected for protein content estimation using Protein Assay Dye Reagent Concentrate from Bio-Rad. 4× LDS was added to the lysate (final dilution 1×) prior to heating at 95°C for 5 min. Electrophoresis and transfer to PVDF membranes was performed using standard protocols. Membranes were blocked in 5% milk in TBS-T prior to incubation with primary antibodies (in 5% milk/TBS-T for ULK1, pS555 (human S556) ULK1, pS757 (human S758) ULK1, pS318-ATG13, ATG13, and in 5% BSA/TBS-T for LC3 and α-Tubulin) under rotation overnight at 4°C followed by washes in TBS-T and incubation with HRP-conjugated secondary antibodies (in 5% milk in TBS-T) for 60 min at room temperature. Membranes were washed in TBS-T before application of ECL reagent (GE healthcare) and development on hypersensitive X-ray films (GE healthcare) (Figures 5A, 6C and Supplementary Figure S7C) or using BIO-RAD Clarity^TM western blotting substrate (Supplementary Figure S6C and Supplementary Figure S7A) and a BIO-RAD ChemiDoc^TM imaging system.
(§3) Quantification of western blots was performed with band densitometry analysis using ImageJ. Quantification of LC3 puncta was performed using either the ITCN plugging in ImageJ or Volocity. One-way or two-way Anova (using GraphPad Prism) followed by a post-hoc test, was used for statistical analysis of western blots and immunofluorescence as indicated in figure legends.

LC3 flux in U2OS cells = assay: Autophagic flux: LC3-II western blot with/without BafA1 in U2OS cells; type: cell-based, human; details: for Effect on starvation-induced LC3 flux: 5 µM, 60 min pre-treatment then 60 min EBSS ± 50 nM BafA1, U2OS
Experimental: as §1
as §2, with “Prior to western blot analysis, cells were washed twice in ice-cold PBS and lysed in buffer containing 50 mM HEPES pH 7.4, 150 mM NaCl, 1 mM EDTA, 10% Glycerol, 0.5% NP-40, 1 mM DTT, supplemented with phosphatase inhibitors (1.15 mM sodium molybdate, 4 mM sodium tartrate, 0.01 M β-glycerophosphate, 1 mM sodium fluoride, 1 mM sodium orthovanadate) and protease inhibitor tablets (Roche) according to manufacturer's instructions. Lysates” for “Lysates”
as §3

ULK1 = target: T1, ULK1 (Homo sapiens, UniProt O75385); assay: ULK1 ADP Hunter Plus kinase activity assay; type: biochemical
T1 construct: purchased MRC PPU Reagents and Services, Dundee, Scotland
T1 sequence (O75385 1-1050): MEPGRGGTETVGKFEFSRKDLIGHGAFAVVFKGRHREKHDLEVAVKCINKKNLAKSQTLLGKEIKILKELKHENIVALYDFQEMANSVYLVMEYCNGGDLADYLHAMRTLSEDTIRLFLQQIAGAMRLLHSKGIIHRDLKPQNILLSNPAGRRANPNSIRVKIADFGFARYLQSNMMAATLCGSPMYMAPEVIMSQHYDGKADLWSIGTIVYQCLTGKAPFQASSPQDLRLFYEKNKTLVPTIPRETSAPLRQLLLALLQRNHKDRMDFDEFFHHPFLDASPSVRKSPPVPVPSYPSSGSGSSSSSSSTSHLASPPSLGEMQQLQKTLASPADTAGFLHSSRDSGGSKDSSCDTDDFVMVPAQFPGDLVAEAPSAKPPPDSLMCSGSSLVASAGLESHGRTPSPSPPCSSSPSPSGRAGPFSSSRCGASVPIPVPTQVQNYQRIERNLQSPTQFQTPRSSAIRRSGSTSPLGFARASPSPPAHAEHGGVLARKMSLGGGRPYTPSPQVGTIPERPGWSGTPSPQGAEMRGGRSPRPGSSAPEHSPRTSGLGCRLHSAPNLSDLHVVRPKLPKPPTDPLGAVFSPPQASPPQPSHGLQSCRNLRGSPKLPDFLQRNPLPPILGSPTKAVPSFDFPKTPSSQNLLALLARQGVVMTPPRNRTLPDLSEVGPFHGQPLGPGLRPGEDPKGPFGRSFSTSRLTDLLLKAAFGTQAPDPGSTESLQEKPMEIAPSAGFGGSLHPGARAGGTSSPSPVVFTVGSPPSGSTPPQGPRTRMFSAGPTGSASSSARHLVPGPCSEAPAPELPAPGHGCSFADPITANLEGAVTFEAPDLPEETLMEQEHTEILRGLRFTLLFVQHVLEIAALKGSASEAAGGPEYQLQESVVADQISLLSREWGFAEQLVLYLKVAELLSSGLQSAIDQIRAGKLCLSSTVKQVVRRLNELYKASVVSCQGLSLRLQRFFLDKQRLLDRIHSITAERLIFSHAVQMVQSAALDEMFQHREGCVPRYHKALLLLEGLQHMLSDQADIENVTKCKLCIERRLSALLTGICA

mTOR (ULK1 pS758) = assay: Upstream mTOR activity: ULK1 pS758 western blot in U2OS cells; type: cell-based, human; details: for Effect on mTORC1 activity (pS758 ULK1): 100 nM (VPS34-IN1 500 nM), 60 min pre-treatment, ± EBSS 60 min
Experimental: as §1, §2, §3

VPS34 (WIPI2 puncta) = assay: Cellular VPS34 activity: WIPI2 puncta immunofluorescence in U2OS cells; type: cell-based, human
Experimental: as §1
(§4) Prior to immunofluorescence, cells were grown on glass coverslips to ∼60% confluency. Cells were washed in PBS prior to fixation with 3.7% PFA/10 mM HEPES pH 7.0 at room temperature for 20 min. PFA was quenched using DMEM/10 mM HEPES pH 7.0/0.02% NaN3, followed by permeabilisation with 0.2% NP-40 in PBS for 5 min, followed by blocking with 1% BSA/PBS/0.02% NaN3. Primary antibody incubation was at room temperature for 60 min, followed by two 10-minute washes, then fluorescent secondary antibody incubation for 30 min and further washes (all in blocking buffer) before mounting onto glass slides. A wide field Nikon TS microscope was used for image capturing.
as §3

AMPK α1β2ɣ1 = AMPK α1β2ɣ1 (Homo sapiens, UniProt O43741+P54619+Q13131); assay: AMPK ADP Hunter Plus kinase activity assay
ULK1 (pS318 ATG13) = assay: Cellular ULK1 kinase activity: pS318 ATG13 western blot in U2OS cells; type: cell-based, human; details: for Effect on starvation-induced increase in pS318 ATG13: 5 µM, 60 min pre-treatment then 60 min EBSS, U2OS; for Cellular ULK1 inhibition compared with GW837331X and GW406108X: 2 µM MRT68921, 5 µM SBI0206965, 120 min EBSS, U2OS western blot (Supplementary Figure S6C)
Experimental: as §1, §2, §3

LC3 puncta in U2OS cells = assay: Endogenous LC3 puncta immunofluorescence in U2OS cells; type: cell-based, human; details: for Enlarged/stalled LC3 puncta (autophagosomes) phenotype: 2 µM MRT68921, 5 µM others, 60 min pre-treatment then 120 min EBSS; for Effect on EBSS-induced increase in LC3 puncta formation: 5 µM
Experimental: as §1, §4, §3

[1] = test system: kinases (human kinome panel); parameters: method as in ChEMBL database; details: value = the kinase inhibited over 50%; ref ChEMBL database; cited from earlier work
[2] = IC50 against VPS34, resynthesized samples, mean potency in parenthesis, n = 5
[3] = pIC50 against VPS34, original PKIS samples, concentration-dependent retest of screen hits
[4] = resynthesized samples, mean potency in parenthesis, n = 5, read-out: IC50 against ULK1 (converted)

Chain of VPS34 (Q8NEB9 whole entry): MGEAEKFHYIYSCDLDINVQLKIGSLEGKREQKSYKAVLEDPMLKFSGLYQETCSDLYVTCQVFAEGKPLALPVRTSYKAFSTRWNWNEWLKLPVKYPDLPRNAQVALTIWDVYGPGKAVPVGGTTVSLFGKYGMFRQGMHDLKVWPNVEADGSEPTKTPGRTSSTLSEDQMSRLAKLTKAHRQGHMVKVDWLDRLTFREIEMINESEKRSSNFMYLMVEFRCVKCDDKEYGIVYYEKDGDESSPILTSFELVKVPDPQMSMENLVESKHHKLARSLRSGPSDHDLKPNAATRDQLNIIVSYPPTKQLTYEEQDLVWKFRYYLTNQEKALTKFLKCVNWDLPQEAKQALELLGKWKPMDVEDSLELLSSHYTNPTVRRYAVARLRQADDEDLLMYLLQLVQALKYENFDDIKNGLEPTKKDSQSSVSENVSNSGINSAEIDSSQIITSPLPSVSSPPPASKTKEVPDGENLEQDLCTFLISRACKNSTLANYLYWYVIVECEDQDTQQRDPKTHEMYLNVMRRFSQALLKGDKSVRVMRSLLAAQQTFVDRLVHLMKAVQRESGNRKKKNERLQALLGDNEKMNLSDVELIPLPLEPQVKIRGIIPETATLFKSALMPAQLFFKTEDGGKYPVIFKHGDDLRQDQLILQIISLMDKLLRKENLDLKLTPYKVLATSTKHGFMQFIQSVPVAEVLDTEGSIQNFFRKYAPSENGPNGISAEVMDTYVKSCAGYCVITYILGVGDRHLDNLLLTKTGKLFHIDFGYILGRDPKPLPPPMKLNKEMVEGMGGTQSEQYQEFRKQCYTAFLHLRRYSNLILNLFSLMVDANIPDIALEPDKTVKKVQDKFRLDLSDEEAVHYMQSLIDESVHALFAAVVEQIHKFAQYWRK
Chain of AMPK α1β2ɣ1 (Q13131 whole entry): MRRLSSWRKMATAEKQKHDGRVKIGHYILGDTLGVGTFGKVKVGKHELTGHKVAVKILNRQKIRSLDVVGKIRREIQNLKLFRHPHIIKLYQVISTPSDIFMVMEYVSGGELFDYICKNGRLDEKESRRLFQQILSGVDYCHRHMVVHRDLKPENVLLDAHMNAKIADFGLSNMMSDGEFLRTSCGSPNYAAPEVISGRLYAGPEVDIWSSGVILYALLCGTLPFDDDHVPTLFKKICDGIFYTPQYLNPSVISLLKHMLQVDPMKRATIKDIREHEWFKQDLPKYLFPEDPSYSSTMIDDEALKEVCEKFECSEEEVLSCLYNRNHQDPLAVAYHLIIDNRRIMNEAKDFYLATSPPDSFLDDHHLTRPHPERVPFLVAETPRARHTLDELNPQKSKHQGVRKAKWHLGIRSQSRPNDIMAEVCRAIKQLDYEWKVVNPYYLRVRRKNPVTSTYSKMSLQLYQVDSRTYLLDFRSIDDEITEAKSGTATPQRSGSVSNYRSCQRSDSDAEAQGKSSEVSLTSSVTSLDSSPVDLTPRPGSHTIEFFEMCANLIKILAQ
Chain of AMPK α1β2ɣ1 (O43741 whole entry partner): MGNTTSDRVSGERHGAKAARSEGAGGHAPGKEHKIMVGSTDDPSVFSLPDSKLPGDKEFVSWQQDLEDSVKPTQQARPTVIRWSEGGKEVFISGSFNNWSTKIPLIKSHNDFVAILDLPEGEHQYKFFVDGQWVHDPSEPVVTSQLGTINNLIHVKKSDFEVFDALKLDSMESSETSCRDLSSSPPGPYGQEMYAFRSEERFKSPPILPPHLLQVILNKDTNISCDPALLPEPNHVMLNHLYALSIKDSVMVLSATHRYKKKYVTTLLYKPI
Chain of AMPK α1β2ɣ1 (P54619 whole entry partner): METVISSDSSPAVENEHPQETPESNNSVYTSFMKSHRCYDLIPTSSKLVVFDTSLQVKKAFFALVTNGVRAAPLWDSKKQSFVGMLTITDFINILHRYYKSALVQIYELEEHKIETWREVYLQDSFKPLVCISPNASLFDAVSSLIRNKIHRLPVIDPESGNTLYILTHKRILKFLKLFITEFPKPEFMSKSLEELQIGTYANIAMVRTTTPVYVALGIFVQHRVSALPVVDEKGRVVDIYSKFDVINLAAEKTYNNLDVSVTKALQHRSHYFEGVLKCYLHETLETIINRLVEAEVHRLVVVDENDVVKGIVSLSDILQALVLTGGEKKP

O=C1Nc2ccc(-c3cccnc3)cc2C1=Cc1cc(Br)c(O)c(Br)c1 [GW429374A]
IC50 (VPS34; [2]): 0.0905 µM and 0.091 µM
IC50 (VPS34; [3]): < 1 µM
Mechanism of inhibition of VPS34 with respect to ATP (VPS34): primarily ATP competitive inhibition
Mechanism of inhibition of VPS34 with respect to PI:PS (VPS34): clear non-competitive inhibition
Effect on AMPK activity (pS556 ULK1) (AMPK (ULK1 pS556)): unaffected
Effect on LC3 flux under EBSS starvation (LC3 flux in U2OS cells; 100 nM, 60 min pre-treatment then 60 min EBSS, U2OS): significantly reduced LC3 flux
IC50 (ULK1; [4]): 8.71 µM
Effect on mTORC1 activity (pS758 ULK1) (mTOR (ULK1 pS758)): unaffected
Effect on EBSS-induced WIPI2 puncta (VPS34 (WIPI2 puncta); 100 nM, 60 min pre-treatment then 60 min EBSS, vs EBSS only): significantly reduced
Concentration working in cells (WIPI2 puncta reduction) (VPS34 (WIPI2 puncta); EBSS, as low as): ≤ 100 nM
IC50 (AMPK α1β2ɣ1): 3.16 µM

CC(C)(CO)CNC(=O)c1ccc2c(c1)/C(=N/Nc1ccc(S(N)(=O)=O)cc1)C(=O)N2 [GW301784X]
IC50 (VPS34; pIC50 against VPS34, resynthesized samples, 50 µM ATP (KM app), mean ± SD, n = 5): 26.3 µM
Effect on starvation-induced LC3 flux (LC3 flux in U2OS cells): did not block LC3 flux
IC50 (AMPK α1β2ɣ1): 0.347 µM
Effect on starvation-induced increase in pS318 ATG13 (ULK1 (pS318 ATG13)): did not have a significant effect

CN1CCc2cc(Nc3ncc(C4CC4)c(NCCCNC(=O)C4CCC4)n3)ccc2C1 [MRT68921, reference compound]
Enlarged/stalled LC3 puncta (autophagosomes) phenotype (LC3 puncta in U2OS cells): larger than those formed with EBSS alone
Cellular ULK1 inhibition compared with GW837331X and GW406108X (ULK1 (pS318 ATG13)): inhibited ULK1 more potently

O=S(=O)(c1ccc(-c2ccnc3[nH]ccc23)cc1)N1CCCC1 [GSK846226A]
IC50 (VPS34; IC50 against VPS34, resynthesized sample): 1.2 µM
IC50 (VPS34; [2]): 1.2 µM
IC50 (VPS34; [3]): < 1 µM
Mechanism of inhibition of VPS34 with respect to ATP (VPS34): primarily ATP competitive inhibition
Mechanism of inhibition of VPS34 with respect to PI:PS (VPS34): clear non-competitive inhibition
IC50 (ULK1; [4]): 0.603 µM
Concentration with inhibitory effect on WIPI2 puncta formation (VPS34 (WIPI2 puncta); EBSS, not at lower concentrations): 5 µM
IC50 (AMPK α1β2ɣ1): 2.51 µM

CNC(=O)c1ccccc1Oc1nc(Nc2cc(OC)c(OC)c(OC)c2)ncc1Br [SBI0206965, reference compound]
Enlarged/stalled LC3 puncta (autophagosomes) phenotype (LC3 puncta in U2OS cells): larger than those formed with EBSS alone
Cellular ULK1 inhibition compared with GW837331X and GW406108X (ULK1 (pS318 ATG13)): inhibited ULK1 more potently

COc1cc(Nc2ncc3c(C)nc(-c4cccc(C(F)(F)F)c4)n3n2)cc(OC)c1OC [GW837331X]
IC50 (VPS34; [2]): > 100 µM
Effect on AMPK activity (ULK1 pS556 levels) (AMPK (ULK1 pS556); 5 µM): without affecting mTOR or AMPK activity
Effect on starvation-induced LC3 flux (LC3 flux in U2OS cells): significantly blocked
IC50 (ULK1; original PKIS samples, concentration-dependent retest of screen hits, read-out: pIC50 against ULK1 (converted)): < 1 µM
IC50 (ULK1; [4]): 0.646 µM
Mechanism of inhibition of ULK1 with respect to ATP (ULK1; varying ATP below 600 µM, Michaelis–Menten and Lineweaver–Burk plots): primarily ATP competitive inhibition
Mechanism of inhibition of ULK1 with respect to MBP (ULK1; varying MBP substrate): clear non-competitive inhibition
Effect on mTOR activity (ULK1 pS758 levels) (mTOR (ULK1 pS758); 5 µM): without affecting mTOR or AMPK activity
Enlarged/stalled LC3 puncta (autophagosomes) phenotype (LC3 puncta in U2OS cells): did not show this phenotype
Effect on EBSS-induced increase in LC3 puncta formation (LC3 puncta in U2OS cells): abolished
Kinases that are inhibited over 50% (descending order) [1]: NEK9 and PLK1 and FMS and SRC and MELK and EphB2 and EphA4
IC50 (AMPK α1β2ɣ1): 2.34 µM
Effect on starvation-induced increase in pS318 ATG13 (ULK1 (pS318 ATG13)): significantly reduced

O=C1Nc2ccc(C(=O)c3ccco3)cc2C1=Cc1cc(Cl)c(O)c(Cl)c1 [GW406108X]
IC50 (VPS34; [2]): 0.457 µM
Effect on starvation-induced LC3 flux (LC3 flux in U2OS cells): significantly blocked
Enlarged/stalled LC3 puncta (autophagosomes) phenotype (LC3 puncta in U2OS cells): did not show this phenotype
Effect on EBSS-induced increase in LC3 puncta formation (LC3 puncta in U2OS cells): abolished
Effect on starvation-induced increase in pS318 ATG13 (ULK1 (pS318 ATG13)): significantly reduced

CC(C)(O)CNc1ncc(-c2ccnc(Nc3ccnc(Cl)c3)n2)c(CC2CC2)n1 [VPS34-IN1, reference compound]
Effect on AMPK activity (pS556 ULK1) (AMPK (ULK1 pS556)): unaffected
Concentration blocking EBSS-induced autophagy (LC3) flux (LC3 flux in U2OS cells; U2OS, EBSS + 50 nM BafA1, as low as, greater effect at 100 nM): ≤ 10 nM
Effect on mTORC1 activity (pS758 ULK1) (mTOR (ULK1 pS758)): unaffected
